Assay results as given in article PMC10734772 (Turkish Journal of Chemistry, 2021).

Columns and labels:
Format in all cases: cell-based
[1] = test system: K562; test: MTT assay, K562 cells; conditions: Homo sapiens, 24 h, MTT, read-out: Viability rate
[2] = test system: Nalm-6; test: MTT assay, Nalm-6 cells; conditions: Homo sapiens, 24 h, MTT, read-out: Viability rate
[3] = test system: Molt-4; test: MTT assay, Molt-4 cells; conditions: Homo sapiens, MOLT-4, 24 h, read-out: Viability rate
Procedure: (§1) K562, Jurkat, Molt-4, and Nalm-6 cell lines were cultured in RPMI-1640 medium (ECM2001, Euroclone), Reh cell line was cultured in DMEM medium (LM-D1111-Biosera) Hek293T cell line was cultured in IMDM medium (AL070A - HiMedia) supplemented with 10% heat-inactivated fetal bovine serum (F7524-Merck & Co., USA,) penicillin and streptomycin (P4333-Sigma Aldrich). K562, Jurkat and Molt-4 cell lines were seeded as 4x10^5/ml, Reh and Nalm-6 cell lines were seeded 5x10^5/ml, Hek293T cell line was seed as 2x10^5/ml. All cells were incubated at 5% CO2 and 37 °C. All cell lines were kindly provided by Dr. M. Sayitoglu and Dr. Ö. Hatirnaz-Ng from Acibadem University.
(§2) MTT assay is a 3-day test. On the first day, cell count was performed in Bio Rad TC-20 device with the help of trypan blue, each cell line was prepared by diluting to the specified concentrations and seeded in a 96-well plate as 100μL to each well and incubated for 1 day.
(§3) Each compound was solved in DMSO, their stock solutions (33.3, 10, 5, 1 mM, and 300 μM) were prepared by diluting with the same solvent and they were stored under −20°C when they were not used.
(§4) On the second day, stock solutions were subsequently diluted to various concentrations (0.3–200 μM) with related medium prior to experiments. Specified concentrations of the compounds were seeded in a 96-well plate as 100μL to each well and incubated for 24 h.
(§5) After incubation (on the third day), to precipitate leukemia cells, the cell plate was centrifuged at 1500 rpm for 5 min. Then, 100 μL of supernatant was removed from each well carefully and 10 μl of MTT solution (5 mg/mL) was added to each well and incubated at 37 °C for 4 h. The 50 μl of supernatant was discarded from each well and 100 μl of DMSO was added to dissolve the formazan. Plates were shaken for 45 min to dissolve the dye. Then the optical density of each well was measured by using Thermo VarioSkan Flush Multimode Reader Quantum ST5-1100 at 570 nm wavelength.
(§6) Subsequently, viability rate of the cells at each concentration, as percentage, was determined by following formula (1):
(§7) Viability rate (%)=100-[(OD(control)-OD(sample))/OD(control)×100].OD=Optical Density
(§8) The IC50 values were calculated by using GraphPad Prism. All the data presented as the mean of 6 replicates. Results were analyzed and illustrated with Graph Pad Prism (version 5; GraphPad Software, San Diego, CA, USA). Statistical analysis was performed using dose-response inhibition, log(inhibitor) vs response-variable slope, least squares (ordinary) fit.
(§9) To evaluate in-vitro anti-cancer activity of the newly synthesized compounds, they were tested by using the MTT assay in the BCR-ABL positive leukemic cell line (K562), BCR-ABL negative leukemic cell lines (Nalm-6, Molt-4, Reh and Jurkat), and non-leukemic human embryonic kidney tissue (Hek293T) cell line. […] The viability rate of each concentration was calculated by the formula stated in material and methods, the viability rate results for each cell were presented in Table S2 and Figure S44.

[4] = test system: Reh; test: MTT assay, Reh cells; conditions: Homo sapiens, 24 h, read-out: Viability rate
Procedure: as §1, §2, §3, §4, §5, §6, §7, §8, §9

[5] = test system: Jurkat; test: MTT assay, Jurkat cells; conditions: Homo sapiens, 24 h, read-out: Viability rate
Procedure: as §1, §2, §3, §4, §5, §6, §7, §8, §9

[6] = MTT assay, Hek293T non-leukemic control cells; conditions: human, read-out: Viability rate
Procedure: as §1, §2, §3, §4, §5, §6, §7, §8, §9

Q: Which results are given for Cc1ccc(NC(=O)c2ccc(CN3CCN(C)CC3)cc2)cc1Nc1nccc(-c2cccnc2)n1 [imatinib, reference compound]?
A: viability at 0.3 µM ([1]; K562, 0.3 μM): 98 ± 0.03%; viability at 0.5 µM ([1]; K562, 0.5 μM): 97.4 ± 0.06%; viability at 1 µM ([1]; K562, 1 μM): 95.4 ± 0.07%; viability at 3 µM ([1]; K562, 3 μM): 95.3 ± 0.05%; viability at 5 µM ([1]; K562, 5 μM): 95.4 ± 0.09%; viability at 10 µM ([1]; K562, 10 μM): 94.8 ± 0.09%; viability at 15 µM ([1]; K562, 15 μM): 88.5 ± 0.1%; viability at 20 µM ([1]; K562, 20 μM): 87 ± 0.04%; viability at 30 µM ([1]; K562, 30 μM): 72.8 ± 0.06%; viability at 50 µM ([1]; K562, 50 μM): 60.8 ± 0.1%; viability at 70 µM ([1]; K562, 70 μM): 60 ± 0.07%; viability at 100 µM ([1]; K562, 100 μM): 51.3 ± 0.05%; viability at 150 µM ([1]; K562, 150 μM): 35.1 ± 0.01%; viability at 200 µM ([1]; K562, 200 μM): 29.7%; viability at 0.3 µM ([2]; Nalm-6, 0.3 μM): 91 ± 0.08%; viability at 0.5 µM ([2]; Nalm-6, 0.5 μM): 90.7 ± 0.06%; viability at 1 µM ([2]; Nalm-6, 1 μM): 90.1 ± 0.09%; viability at 3 µM ([2]; Nalm-6, 3 μM): 84.7 ± 0.09%; viability at 5 µM ([2]; Nalm-6, 5 μM): 84.5 ± 0.05%; viability at 10 µM ([2]; Nalm-6, 10 μM): 72.9 ± 0.03%; viability at 15 µM ([2]; Nalm-6, 15 μM): 57.1 ± 0.02%; viability at 20 µM ([2]; Nalm-6, 20 μM): 52.7 ± 0.01%; viability at 30 µM ([2]; Nalm-6, 30 μM): 50.7 ± 0.03%; viability at 50 µM ([2]; Nalm-6, 50 μM): 39.7 ± 0.01%; viability at 70 µM ([2]; Nalm-6, 70 μM): 32.5 ± 0.05%; viability at 100 µM ([2]; Nalm-6, 100 μM): 32.2 ± 0.02%; viability at 150 µM ([2]; Nalm-6, 150 μM): 32.5 ± 0.01%; viability at 200 µM ([2]; Nalm-6, 200 μM): 29%; viability at 0.3 µM ([3]; Molt-4, 0.3 μM): 75.6 ± 0.18%; viability at 0.5 µM ([3]; Molt-4, 0.5 μM): 74.9 ± 0.18%; viability at 1 µM ([3]; Molt-4, 1 μM): 75.1 ± 0.19%; viability at 3 µM ([3]; Molt-4, 3 μM): 73.8 ± 0.17%; viability at 5 µM ([3]; Molt-4, 5 μM): 72.7 ± 0.25%; viability at 10 µM ([3]; Molt-4, 10 μM): 70.7 ± 0.21%; viability at 15 µM ([3]; Molt-4, 15 μM): 70.2 ± 0.1%; viability at 20 µM ([3]; Molt-4, 20 μM): 63.4 ± 0.1%; viability at 30 µM ([3]; Molt-4, 30 μM): 63.3 ± 0.06%; viability at 50 µM ([3]; Molt-4, 50 μM): 55.5 ± 0.05%; viability at 70 µM ([3]; Molt-4, 70 μM): 52.1 ± 0.1%; viability at 100 µM ([3]; Molt-4, 100 μM): 41.2 ± 0.06%; viability at 150 µM ([3]; Molt-4, 150 μM): 29.8 ± 0.04%; viability at 200 µM ([3]; Molt-4, 200 μM): 20.3 ± 0.02%; viability at 0.3 µM ([4]; 0.3 μM): 97.6 ± 0.03%; viability at 0.5 µM ([4]; 0.5 μM): 96.8 ± 0.03%; viability at 1 µM ([4]; 1 μM): 96.4 ± 0.01%; viability at 3 µM ([4]; 3 μM): 95.5 ± 0.02%; viability at 5 µM ([4]; 5 μM): 94.5 ± 0.03%; viability at 10 µM ([4]; 10 μM): 91.3 ± 0.05%; viability at 15 µM ([4]; 15 μM): 82.4 ± 0.02%; viability at 20 µM ([4]; 20 μM): 78.6 ± 0.02%; viability at 30 µM ([4]; 30 μM): 70.9 ± 0.03%; viability at 50 µM ([4]; 50 μM): 63.5 ± 0.04%; viability at 70 µM ([4]; 70 μM): 62.9 ± 0.03%; viability at 100 µM ([4]; 100 μM): 61.2 ± 0.01%; viability at 150 µM ([4]; 150 μM): 60.3 ± 0.03%; viability at 200 µM ([4]; 200 μM): 57 ± 0.02%; viability at 0.3 µM ([5]; 0.3 μM): 68.4 ± 0.12%; viability at 0.5 µM ([5]; 0.5 μM): 63.9 ± 0.03%; viability at 1 µM ([5]; 1 μM): 61.5 ± 0.07%; viability at 3 µM ([5]; 3 μM): 61.3 ± 0.05%; viability at 5 µM ([5]; 5 μM): 60.7 ± 0.08%; viability at 10 µM ([5]; 10 μM): 60.6 ± 0.14%; viability at 15 µM ([5]; 15 μM): 57.9 ± 0.05%; viability at 20 µM ([5]; 20 μM): 46.8 ± 0.05%; viability at 30 µM ([5]; 30 μM): 34.5 ± 0.04%; viability at 50 µM ([5]; 50 μM): 26.2 ± 0.05%; viability at 70 µM ([5]; 70 μM): 17.8 ± 0.02%; viability at 100 µM ([5]; 100 μM): 17.5 ± 0.01%; viability at 150 µM ([5]; 150 μM): 17.3 ± 0.01%; viability at 200 µM ([5]; 200 μM): 16.6%; viability at 24 h, 0.3 µM ([6]; Hek293T cells (non-leukemic control cell line), 0.3 μM): 83.4 ± 0.02%; viability at 24 h, 0.5 µM ([6]; Hek293T cells (non-leukemic control cell line), 0.5 μM): 78.6 ± 0.04%; viability at 24 h, 3 µM ([6]; Hek293T cells (non-leukemic control cell line), 3 μM): 73.1 ± 0.03%; viability at 24 h, 5 µM ([6]; Hek293T cells (non-leukemic control cell line), 5 μM): 71.5 ± 0.02%; viability at 24 h, 10 µM ([6]; Hek293T cells (non-leukemic control cell line), 10 μM): 67.9 ± 0.01%; viability at 24 h, 15 µM ([6]; Hek293T cells (non-leukemic control cell line), 15 μM): 59.6 ± 0.01%; viability at 24 h, 20 µM ([6]; Hek293T cells (non-leukemic control cell line), 20 μM): 55.7 ± 0.03%; viability at 24 h, 30 µM ([6]; Hek293T cells (non-leukemic control cell line), 30 μM): 53.5 ± 0.01%; viability at 24 h, 50 µM ([6]; Hek293T cells (non-leukemic control cell line), 50 μM): 48.5 ± 0.05%; viability at 24 h, 70 µM ([6]; Hek293T cells (non-leukemic control cell line), 70 μM): 42.9 ± 0.03%; viability at 24 h, 100 µM ([6]; Hek293T cells (non-leukemic control cell line), 100 μM): 42.7 ± 0.03%; viability at 24 h, 150 µM ([6]; Hek293T cells (non-leukemic control cell line), 150 μM): 42.5 ± 0.02%; viability at 24 h, 200 µM ([6]; Hek293T cells (non-leukemic control cell line), 200 μM): 42.1 ± 0.01%; viability at 24 h, 1 µM ([6]; Hek293T cells, 1 μM): 77.7 ± 0.03%
